# Measurements from ChEMBL document CHEMBL1152052, “Probing the P3 pocket of stromelysin with piperazic acid analogs” (Bioorg Med Chem Lett, 1995).
# Biological target: Stromelysin-1 (Homo sapiens, UniProt P08254)
# Experiment: Inhibition of matrix metalloprotease-3 (MMP-3)
# Stromelysin-1, sequence (P08254 whole entry): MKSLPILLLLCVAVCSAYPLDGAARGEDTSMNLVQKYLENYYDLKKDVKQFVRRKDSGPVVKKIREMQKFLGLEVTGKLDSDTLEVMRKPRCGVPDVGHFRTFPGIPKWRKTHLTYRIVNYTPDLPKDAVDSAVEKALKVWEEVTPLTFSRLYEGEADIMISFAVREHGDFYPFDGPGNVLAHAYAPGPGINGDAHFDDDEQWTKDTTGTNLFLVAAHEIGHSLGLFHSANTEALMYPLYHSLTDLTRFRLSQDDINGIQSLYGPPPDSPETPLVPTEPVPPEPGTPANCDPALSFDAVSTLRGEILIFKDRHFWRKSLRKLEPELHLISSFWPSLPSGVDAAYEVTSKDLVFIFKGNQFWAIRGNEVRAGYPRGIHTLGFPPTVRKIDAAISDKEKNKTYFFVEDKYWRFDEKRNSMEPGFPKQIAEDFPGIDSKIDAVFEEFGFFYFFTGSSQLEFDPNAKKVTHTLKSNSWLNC
row,Compound,IC50 [nM]
1,CC(C)C[C@H](CC(=O)NO)C(=O)N1NCCC[C@H]1CO,2700
2,COC[C@@H]1CCCNN1C(=O)[C@@H](CC(=O)NO)CC(C)C,20400
3,CC(C)C[C@H](CC(=O)NO)C(=O)N1CCCCN1,9670

# Compounds with a lower IC50, results first:
row,IC50 [nM],Compound
1,810,COC(=O)[C@@H]1CCCNN1C(=O)[C@@H](CC(=O)NO)CC(C)C
2,600,CC(C)C[C@H](CC(=O)NO)C(=O)N1NCCC[C@H]1C(=O)O
3,300,CCCCC[C@H](CC(=O)NO)C(=O)N1NCCC[C@H]1C(=O)N[C@@H](C(=O)CC)C(C)CC (stereo partly specified)
